Measured values as given in US9289425B2, “Intranasal naloxone compositions and methods of making and using same” (priority 2013, dated 2016).
Counter-ions that a name gives are not always drawn. Like-named read-outs stand apart in the source and are kept apart here.

Experiments:
[1] = Physicochemical properties of naloxone stated in the description; settings: pH of about 5.5 to 6.5
Description: Specifically, naloxone is known to have a pKa of about 8. For nasal formulations, wherein transmucosal delivery is desired, it is generally considered advantageous, if not necessary, to ensure that an active agent is primarily in an un-ionized state, as unionized species pass through membranes more easily than ionized species. […] The nasal mucosal is at a pH of about 5.5 to 6.5, a pH at which Applicant has found naloxone is unstable.
Naloxone prevents or reverses the effects of opioids including respiratory depression, sedation and hypotension. Also, it can reverse the psychotomimetic and dysphoric effects of agonist-antagonists such as pentazocine. […] In the presence of physical dependence on opioids, naloxone will produce withdrawal symptoms. However, in the presence of opioid dependence, withdrawal symptoms will appear within minutes of naloxone administration and will subside in about 2 hours. The severity and duration of the withdrawal syndrome are related to the dose and route of administration of naloxone and to the degree and type of dependence.

[2] = cited from earlier work

Compound: C=CCN1CC[C@]23c4c5ccc(O)c4O[C@H]2C(=O)CC[C@@]3(O)[C@H]1C5 [naloxone, 17-allyl-4,5α-epoxy, 3-14-dihydroxymorphinan-6-one hydrochloride]
- stability versus pH [1]: unstable
- pKa [2]: about 8
- solubility ([2]; in alcohol): slightly soluble
- solubility ([2]; in ether and in chloroform): practically insoluble
- solubility ([2]; in water, in dilute acids, and in strong alkali): soluble
